Measured values taken from patent US20220289732A1, “HETEROCYCLIC WDR5 INHIBITORS AS ANTI-CANCER COMPOUNDS” (NOVARTIS AG, priority 2019, published 2022).

Key:
WDR5 = WDR5 (Homo sapiens, UniProt P61964); test: WDR5 HTRF binding assay; details: read-out: (a) WDR5 HTRF Pep Val v.1[Inhibitor/IC50]Qualified AC50
Description: The compounds were serially diluted 3-fold in DMSO to obtain a total of twelve concentrations. Then the test compounds at each concentration (90 nL of each) were transferred by Mosquito in the white Proxiplate plus 384-well microplate (Perkin Elmer). The assay mixture (typical 9 μL) containing 6 nM WDR5 and 20 nM Biotin-MLL1 WIN peptide (3762-3773) in the assay buffer (25 mM Hepes, pH7.5, 0.05% Tween 20, 2 mM DTT, 100 mM NaCl, 0.1% BSA) were added to the wells. For counter assay, a 9 μL solution of 15 nM Biotin-PEG-His peptide was added into the wells. After 20 min incubation at rt, a 3 μL detection solution containing 14 μg/ml Phycolink Streptavidin Allophycocyanin (Prozyme), 2 nM Anti-His-Eu (PerkinElmer) in assay buffer was then added. After 1 hr incubation, the plate was read in the EnVision reader (PerkinElmer) using the HTRF protocol (The protocol set-up: Lance/Delfia dual enhancer mirror, excitation at 320 UV2 (TRF), emission at APC665, 2nd emission at EuropiμM 615). HTRF signals were normalized based on the reading coming from the positive (maximum signal control) and negative controls (minimum signal control) to give percentage of activities left. The data were then fit to a dose response equation using the program Helios (Novartis) to get the IC50 values. Helios is a Novartis in-house assay data analysis software using the methods described by Normolle, D. P., Statistics in Medicine, 12:2025-2042 (1993); Formenko, I. et al., Computer Methods and programs in Biomedicine, 82, 31-37 (2006); Sebaugh, J. L., Pharmaceutical Statistics, 10:128-134 (2011); Kelly, C. et al., Biometrics, 46(4):1071-1085 (1990); and Kahm, M, et al., Journal of Statistical Software, 33(7):(2010) (grofit: Fitting Biological Growth Curves with R, pages 1-21, available at http://www.jstatsoft.org/).

[1] = target: wild type MLL1 four-member complex (MLL1-4C) (Homo sapiens, UniProt P61964); test: MLL1 LC-MS assay (SAH production); assay type: biochemical; details: read-out: (b) MLL LCMS Peptide Val.v.1 Qualified AC50
Description: The compounds of the present disclosure were serially and separately diluted 3-fold in DMSO to obtain a total of eight or twelve concentrations. Then the test compounds at each concentration (120 nL of each) were transferred by Mosquito into white Proxiplate plus 384-well microplate (PerkinElmer). Solutions (6 μL) of 60 nM wild type MLL1 four-member complex (MLL1-4C) and 5 μM SAM in the reaction buffer (20 mM Tris-HCl, pH8.0, 0.01% Tween 20, 1 mM DTT, 10 mM MgCl2, 0.01% BSA) were added to the wells that were then incubated with the test compound for 20 min. A 6 μL solution of 20 μM of the peptide substrate H3K4me0 (histone H3[1-21]-Biotin) in the reaction buffer was added to initiate each reaction. The final components in the reaction solution include 30 nM MLL1-4C, 2.5 μM SAM, and 10 μM H3K4me0 with varying concentration of the compounds. A positive control consisted of 30 nM MLL1-4C, 2.5 μM SAM, and 10 μM substrate in the absence of the test compound, and a negative control consisted of 2.5 μM SAM, and 10 μM substrate only. Each reaction was incubated at rt for 120 min, then stopped by addition of 3 μL per of quench solution (2.5% TFA with 320 nM d4-SAH). The reaction mixture was centrifuged (Eppendorf centrifuge 5810, Rotor A-4-62) for 2 min at 2000 rmp. The SAH production from the enzymatic assays were monitored by LC-MS/MS on an API 4000 triple quadrupole mass spec with Turbolon Spray (Applied Biosystem) coupled with Prominenece UFLC (Shimazu). The level of SAH production were then normalized based on the values coming from the positive and negative controls to give percent enzyme activities. The data were then fit to a dose response equation using the program Helios (Novartis) to get the IC50 values of the test compound. Helios is a Novartis in-house assay data analysis software using the methods described by Normolle, D. P., Statistics in Medicine, 12:2025-2042 (1993); Formenko, I. et al., Computer Methods and programs in Biomedicine, 82, 31-37 (2006); Sebaugh, J. L., Pharmaceutical Statistics, 10:128-134 (2011); Kelly, C. et al., Biometrics, 46(4):1071-1085 (1990); and Kahm, M, et al., Journal of Statistical Software, 33(7):(2010) (grofit: Fitting Biological Growth Curves with R, pages 1-21, available at http://www.jstatsoft.org/).

MV4-11 cells = test: MV4-11 6-day cell growth CTG (CellTiter-Glo) assay; assay type: cell-based; details: Homo sapiens, MV4-11, 144 h, 6 days, read-out: (c) MLL/WDR5 cell proliferation assay//MLL/WDR5 proliferation MV4:11 Qualified AC50
Description: MV4-11 6-Day Cell Growth CTG (CellTiter-Glo) Assay
Acute myeloid leukemia cell MV4-11 (ATCC® CRL-9591™) was cultured with RPMI 1640 medium (Thermo Fisher Scientific, cat #11875) supplemented with 10% FBS (Thermo Fisher Scientific, cat #10099141) in humidified incubator at 37° C., 5% CO2. To assess the effect of WDR5 inhibitor on cell growth, the compound of the present invention was dissolved in DMSO and serially diluted at 1:3 for 12 points starting from 10 mM then 200 nL for the replicate of each dose per well was dispensed to Viewplate-384 Black (Perkin Elmer). Exponentially growing MV4-11 cells were seeded at the density of 300 cells per well in 40 μL to the plate, so the final compound working concentration starts from 50 μM. After 6 days, 40 μL CellTiter-Glo (Promega, cat #G7573) was added into the cell culture well and luminescence was read with Envision (Perkin Elmer) to determine the viable cells. The percentage inhibition was calculated against the samples treated with DMSO only and the data were used for dose response curve fitting in GraphPad Prism to get the IC50 of representative compound of present invention, which reflects the inhibition of WDR5 activity in the proliferation of MV4;11.

| IC50 (WDR5) [µM] | AC50 [1] [µM] | Compound | AC50 (MV4-11 cells) [µM] |
| --- | --- | --- | --- |
| < 0.01 | 0.01 to 1 | CCOc1cc([C@H](C)N2CCc3c(cc(Cn4ccnc4C)cc3-c3cn(C)nc3C)C2=O)ncc1C(N)=O (single isomer, unassigned) [Example 268] | 0.01 to 1 |
| < 0.01 | 0.01 to 1 | CCOc1cc([C@H](C)N2CCc3c(cc(Cn4ccnc4C)cc3-c3cc(CN(C)C)nn3C)C2=O)ncc1C#N (single isomer, unassigned) [Example 270] | 0.01 to 1 |
| < 0.01 | 0.01 to 1 | CCOc1cc([C@H](C)N2CCc3c(cc(Cn4ccnc4C)cc3-c3cn(C)c(=O)cc3C(F)(F)F)C2=O)ncc1F (single isomer, unassigned) [Example 278] | < 0.01 |
| < 0.01 | < 0.01 | CCOc1cc([C@H](C)N2CCc3c(cc(Cn4ccnc4C)cc3-c3cn(C)nc3C)C2=O)nnc1C#N (single isomer, unassigned) [Example 303] | < 0.01 |
| 0.01 to 1 | 0.01 to 1 | CCOc1cc(C(C)N2CCc3c(Br)cc(Cn4ccnc4NC)cc3C2=O)ncc1C#N (stereo not drawn) [Example 1, 6-(1-(5-bromo-7-((2-(methylamino)-1H-imidazol-1-yl)methyl)-1-oxo-3,4 dihydroisoquinolin-2(1H)-yl)ethyl)-4-ethoxynicotinonitrile] | 0.01 to 1 |
| 0.01 to 1 | 0.01 to 1 | CCOc1cc(CN2CCc3c(Br)cc(Cn4ccnc4NC)cc3C2=O)cnc1C#N [Example 2, 5-((5-bromo-7-((2-(methylamino)-1H-imidazol-1-yl)methyl)-1-oxo-3,4-dihydroisoquinolin-2(1H)-yl)methyl)-3-ethoxypicolinonitrile] | 0.01 to 1 |
| 0.01 to 1 | 0.01 to 1 | CCOc1cc([C@H](C)N2CCc3c(Cl)cc(Cn4ccnc4NC)cc3C2=O)cnc1C#N [Example 4, (S)-5-(1-(5-chloro-7-((2-(methylamino)-1H-imidazol-1-yl)methyl)-1-oxo-3,4-dihydroisoquinolin-2(1H)-yl)ethyl)-3-ethoxypicolinonitrile] | 0.01 to 1 |
| 0.01 to 1 | 0.01 to 1 | CCOc1cc([C@H](C)N2CCc3c(Cl)cc(Cn4ccnc4NC)cc3C2=O)ncc1F [Example 5, (S)-5-chloro-2-(1-(4-ethoxy-5-fluoropyridin-2-yl)ethyl)-7-((2-(methylamino)-1H-imidazol-1-yl)methyl)-3,4-dihydroisoquinolin-1(2H)-one] | 0.01 to 1 |
| 0.01 to 1 | 0.01 to 1 | CCOc1cc(CN2CCc3c(Cl)cc(Cn4ccnc4NC)cc3C2=O)cnc1C#N [Example 6, 5-((5-chloro-7-((2-(methylamino)-1H-imidazol-1-yl)methyl)-1-oxo-3,4-dihydroisoquinolin-2(1H)-yl)methyl)-3-ethoxypicolinonitrile] | 0.01 to 1 |
| < 0.01 | 0.01 to 1 | CNc1nccn1Cc1cc(CN2CCOCC2)c2c(c1)C(=O)N([C@@H](C)c1cnc(F)c(OC)c1)CC2 [Example 8, (S)-2-(1-(6-fluoro-5-methoxypyridin-3-yl)ethyl)-7-((2-(methylamino)-1H-imidazol-1-yl)methyl)-5-(morpholinomethyl)-3,4-dihydroisoquinolin-1(2H)-one] | 0.01 to 1 |
| < 0.01 | 0.01 to 1 | CCOc1cc([C@H](C)N2CCc3c(CN4CC[C@H](F)C4)cc(Cn4ccnc4NC)cc3C2=O)ncc1C#N [Example 9, 4-ethoxy-6-((S)-1-(5-(((S)-3-fluoropyrrolidin-1-yl)methyl)-7-((2-(methylamino)-1H-imidazol-1-yl)methyl)-1-oxo-3,4-dihydroisoquinolin-2(1H)-yl)ethyl)nicotinonitrile] | 0.01 to 1 |
| < 0.01 | 0.01 to 1 | CCOc1cc([C@H](C)N2CCc3c(CN(C)C4COC4)cc(Cn4ccnc4NC)cc3C2=O)ncc1F [Example 10, (S)-2-(1-(4-ethoxy-5-fluoropyridin-2-yl)ethyl)-5-((methyl(oxetan-3-yl)amino)methyl)-7-((2-(methylamino)-1H-imidazol-1-yl)methyl)-3,4-dihydroisoquinolin-1(2H)-one] | 0.01 to 1 |
| < 0.01 | 0.01 to 1 | CCOc1cc([C@H](C)N2CCc3c(CN4CC[C@@H](F)C4)cc(Cn4ccnc4NC)cc3C2=O)ncc1C#N [Example 11, 4-ethoxy-6-((S)-1-(5-(((R)-3-fluoropyrrolidin-1-yl)methyl)-7-((2-(methylamino)-1H-imidazol-1-yl)methyl)-1-oxo-3,4-dihydroisoquinolin-2(1H)-yl)ethyl)nicotinonitrile] | 0.01 to 1 |
| 0.01 to 1 | 0.01 to 1 | CCOc1cc([C@H](C)N2CCc3c(CN4CCOCC4)cc(Cn4ccnc4NC)cc3C2=O)ncc1C#N [Example 12, (S)-4-ethoxy-6-(1-(7-((2-(methylamino)-1H-imidazol-1-yl)methyl)-5-(morpholinomethyl)-1-oxo-3,4-dihydroisoquinolin-2(1H)-yl)ethyl)nicotinonitrile] | 0.01 to 1 |
| 0.01 to 1 | 0.01 to 1 | CNc1nccn1Cc1cc(CN(C)C2COC2)c2c(c1)C(=O)N([C@@H](C)c1cc(OC)c(F)cn1)CC2 [Example 13] | 0.01 to 1 |
| 0.01 to 1 | 0.01 to 1 | CCOc1cc([C@H](C)N2CCc3c(CN4CC[C@@H](F)C4)cc(Cn4ccnc4NC)cc3C2=O)ncc1F [Example 14, 2-((S)-1-(4-ethoxy-5-fluoropyridin-2-yl)ethyl)-5-(((R)-3-fluoropyrrolidin-1-yl)methyl)-7-((2-(methylamino)-1H-imidazol-1-yl)methyl)-3,4-dihydroisoquinolin-1(2H)-one] | 0.01 to 1 |
